Measured values published in patent publication US20250312408A1, “NAP FOR SEX-SPECIFIC TREATMENT OF DISEASES” (RAMOT AT TEL-AVIV UNIVERSITY LTD., priority 2021, published 2025).
Where two headings read alike, the source gives them in different places.

Tests used:
[1] = test system: subjects with schizophrenia; test: Schizophrenia clinical trial, UCSD Performance-based Skills Assessment (UPSA), analysed separately for males and females; format: in vivo, human
Method: Briefly, sixty-three subjects with schizophrenia received davunetide at one of two different doses (5, 30 mg/day) or placebo for 12 weeks in a multicenter, double-blind, parallel-group randomized clinical trial. The MATRICS Consensus Cognitive Battery (MCCB) assessed cognitive effects. The UCSD Performance-based Skills Assessment (UPSA) with maximal score of 100 and the Schizophrenia Cognition Rating Scale (SCoRS) assessed functional capacity. Subjects continued their current antipsychotic treatment during the trial. For UPSA, there was a significant main effect of treatment across study arms (p=0.048). Between-group effect size (d) values were 0.74 and 0.48, favoring the 5 and 30 mg doses, respectively.
Considering the results obtained for PSP and the involvement of ADNP in both diseases, we analyzed the data separately for males and females with 7-16 subjects per group. […] All in all, the 5 mg daily dose was beneficial for women as detected after 6 and 12 weeks of treatment.

PSP patients [2] = details: cited from earlier work; for PSP trial outcome, sexes not separated (Boxer et al.): 30 mg twice daily, 52 weeks, whole population
[3] = test system: subjects with schizophrenia; details: cited from earlier work; for UPSA score vs placebo (Javitt et al.): 5 mg daily dose; for UPSA between-group effect size (d): 12 weeks, men and women mixed (Javitt et al.)
PSP patients [4] = test: Phase 2/3 davunetide vs placebo trial in PSP, re-evaluated separating males and females; format: in vivo, human
Method: In this example we used results of a clinical trial performed as described in Boxer et al. Shortly, in a double blind, parallel group, phase 2/3 trial, participants were randomly assigned with permuted blocks in a 1:1 ratio to davunetide (NAP, having amino acid sequence […] set forth as SEQ ID NO: 1, 30 mg twice daily, intranasally) or placebo for 52 weeks at 48 centers in Australia, Canada, France, Germany, the UK, and the USA. Participants met the modified Neuroprotection and Natural History in Parkinson Plus Syndrome study criteria for PSP. Primary endpoints were the change from baseline in PSP Rating Scale (PSPRS, 28 items, 6 categories, 0=normal, 100=most disability) and Schwab and England Activities of Daily Living scale (SEADL, 11-point rating scale, 0=vegetative, 100%/=completely independent, 10% increments) at up to 52 weeks. Data collection was at week 0, 6, 13, 26, 39 and 52. All participants and study personnel were masked to treatment assignment. Analysis was by intention to treat. The trial is registered with Clinicaltrials.gov, number NCT01110720. 313 participants were randomly assigned to davunetide (n=157) or to placebo (n=156), and 241 (77%) completed the study (118 and […] in the davunetide and placebo groups, respectively). A secondary outcome was brain ventricular volume as measured with boundary shift integral analysis of T1-weighted magnetic resonance imaging (MRI) scans, mostly collected at week 0 and 52. At the same time, selected patients were also subjected to lumbar puncture and assessment of Tau content and Tau hyperphosphorylation in the cerebrospinal fluid (CSF).
To further understand disease progression, sex/age/baseline differences and drug influence, we re-evaluated study results, separating males and females, and assessing the primary and secondary endpoints. In this respect, we further assessed individually the 6 disability domains of the PSPRS, namely: daily activities (by history, seven items with a total maximum score of 24), behavior (mentation, emotional, interference with activity of daily living, maximum score of 16), bulbar (speech and swallowing, maximal score of 8), ocular motor (eye and eyelid activity, 16 points), limb motor (fine motor skills including tremor, 16 points) and gait/midline (gross motor skills, 20 points) https://www.physio-pedia.com/Progressive_Supranuclear_Palsy_Rating_Scale_(PSP-RS).
Statistical considerations: To include the ventricle volumetric measures, the cohort was composed of female and male PSP patients treated with davunetide or placebo (sample sizes for sex-treatment groups at 52 weeks of treatment: 48-55), outcome variables included ventricular volume (will be referred to as volume), PSPRS and SEADL assessed at study initiation and follow up to 52 weeks after twice daily treatment.
Data analysis was performed using Graph Pad Prism 7.0 software (see FIGS. 1 and 4). Other statistical tests and visualizations were made in R version 4.2.1 (2022-06-23) with the base library, ggplot2 and ggplot2 extension packages. Correlation plots statistics (FIGS. 2, 3 and 5) were computed using the standard Pearson method. The volume change (from FIG. 3) is the difference between the baseline and week-52 measurements. PSPRS, SEADL and ventricular volume in figures (FIG. 5) are represented by differences between the baseline and week-52 measurements, as a percentage of the baseline measurement. FIGS. 6 and 7 give the absolute changes overtime, due to the non-normal distribution of most parameters, statistical significance was measured using the Wilcoxon test. Only extreme values (defined as 3*IQR deviation from the penultimate top/bottom quantiles), were removed from the final calculations. There were only 11 observations that were considered extreme and their influence on our results was insignificant. FIG. 8 representing the geriatric depression scale measure (GDS) was prepared using excel.

[5] = test system: Adnp mutated (HTR (Tyr)) mice; details: deficits accentuated in females (Karmon et al.); cited from earlier work
[6] = test system: subjects suffering from amnestic mild cognitive impairment (aMCI); details: sexes not separated; cited from earlier work
[7] = test system: subjects suffering from amnestic mild cognitive impairment (aMCI); test: aMCI clinical trial, CANTAB Delayed Match-to-Sample (DMTS) test, men and women analysed separately; format: in vivo, human; details: for effect of treatment on aMCI symptoms: males, 30 mg/day; for DMTS change vs placebo, Student's t test: men only
Method: The subject's task is to select the pattern that matches the original sample, here depicted after a 12 s interval. Thus, subjects suffering from aMCI were treated with either 5 mg daily or 15 mg twice daily (BID) by intranasal davunetide administration (1 or three puffs of the same strength davunetide solution). Treatment was for 12 weeks and testing was at baseline and every four weeks, including also 4 weeks after cessation of treatment. When analyzing the data, we separated here men and women for the first time as outlined below. […] We further conclude that much higher dose are required, especially in females.

Hace1 = test: Hippocampal RNA sequencing of Adnp mutated (HTR (Tyr)) mice; format: in vivo
Source text: In this model, gait deficits were accentuated in females, and ameliorated by NAP treatment. We discovered a surprising mirror imaging in NAP peptide (davunetide) brain (hippocampus) action in the treated mice as a dependence on mice sex. […] Hace1 is associated with ataxia and Huntington disease and is also involved in depression and Alzheimer's disease. NAP protection (FIG. 11) further attests to sex-dependent treatments of the diseases associated or mediated with Hace1.

[8] = males, from week 26 on, 30 mg twice daily
[9] = woman cohort, very few individuals, exploratory

CC[C@H](C)[C@H](NC(=O)[C@H](CO)NC(=O)[C@@H](NC(=O)[C@@H]1CCCN1C(=O)[C@H](C)NC(=O)[C@@H](N)CC(N)=O)C(C)C)C(=O)N1CCC[C@H]1C(=O)N[C@@H](CCC(N)=O)C(=O)O [davunetide]
UPSA change, average ([1]; men, 5 mg daily): 7.4 points
effect on UPSA ([1]; men, 5 mg daily, especially after 6 weeks): effective
effect on UPSA ([1]; men, 15 mg twice daily (30 mg/day), 12 weeks): significant results
effect on UPSA ([1]; men, 15 mg twice daily (30 mg/day), 12 weeks, listed as NAP): significant improvement
UPSA change, mean ([1]; women, 5 mg daily, 12 weeks): 14.9 points
effect on UPSA ([1]; women, 5 mg daily, after 6 and 12 weeks): beneficial
UPSA improvement ([1]; women, 5 mg daily, after 12 weeks): 15%
effect on UPSA ([1]; women, 15 mg twice daily (30 mg/day), week 12, vs 5 mg/day P=0.002): significantly lower effect
effect on UPSA ([1]; women, 15 mg twice daily (30 mg/day), week 12, vs 5 mg/day P=0.002, listed as NAP): not observed
PSP trial outcome, sexes not separated (Boxer et al.) (PSP patients [2]): did not meet its endpoints
PSP trial outcome, sexes not separated (Boxer et al.) (PSP patients [2]; listed as Davunetide): not an effective treatment
safety in the PSP trial (Boxer et al.) (PSP patients [2]; in vivo): showing safety
UPSA score vs placebo (Javitt et al.) ([3]; sexes mixed): significantly more effective
UPSA score vs placebo (Javitt et al.) ([3]; sexes mixed, listed as NAP): significantly higher
UPSA between-group effect size (d) ([3]; 5 mg dose): 0.74
UPSA score vs 5 mg daily dose and placebo (Javitt et al.) ([3]; 30 mg (15 mg twice daily), sexes mixed): insignificantly different
UPSA between-group effect size (d) ([3]; 30 mg dose): 0.48
daily living activities in schizophrenia patients (Javitt et al.) ([3]; sexes mixed): protection of daily living activities
CGIds (Clinical Global Impression of Disease Severity) (PSP patients [4]; davunetide-treated males, P=0.013): deteriorated
adverse effects on all other PSPRS domains (PSP patients [4]; females): no adverse effects
ventricular volume increase correlating with baseline ventricular volume (PSP patients [4]; females, 30 mg twice daily intranasally, 52 weeks): complete protection
PSPRS change vs placebo (PSP patients [4]; females, 52 weeks, 30 mg twice daily): trended toward significant improvement
disease progression in PSPRS mental behavior domain (PSP patients [4]; females, over 52 weeks): almost halted
SEADL change from baseline vs placebo (PSP patients [4]; females, starting at week 39 and continuing on 52, P=0.0187 and P=0.00537): significant protective effect
effect on oculomotor activities (PSPRS domain) (PSP patients [4]; females, week 6, P=0.0127): transient adverse effect
GDS score (geriatric depression) compared to placebo (PSP patients [4]; females, week 52, Wilcoxon, P=0.023): improved significantly
bulbar domain of the PSPRS (dysarthria, dysphagia) vs placebo (PSP patients [4]; females, week 52, P=0.0222): significant protective effect
limb motor skills (PSPRS domain) vs placebo (PSP patients [4]; females, P=0.0838): partially protected
ventricular volume change vs baseline ventricular volume (PSP patients [4]; males, 30 mg twice daily intranasally, 52 weeks): no drug effects
PSPRS change compared to the placebo group (PSP patients [4]; [8]): significant increase in PSPRS
SEADL change compared to the placebo group (PSP patients [4]; [8]): decrease in SEADL
percent of baseline ventricular volume change with age vs placebo (PSP patients [4]; men, 30 mg twice daily intranasally, 52 weeks): No differences
percent of baseline ventricular volume change with age vs placebo (PSP patients [4]; men, 30 mg twice daily intranasally, 52 weeks, listed as NAP peptide): not observed in males
phosphorylated Tau in the cerebrospinal fluid (CSF) compared to placebo (PSP patients [4]; [9]): trends in total Tau and phosphorylated Tau reduction
total Tau in the cerebrospinal fluid (CSF) compared to placebo (PSP patients [4]; [9]): trends in total Tau and phosphorylated Tau reduction
percent of baseline ventricular volume change with age vs placebo (PSP patients [4]; women (older woman patients), 30 mg twice daily intranasally, 52 weeks): significant neuroprotective effect
percent of baseline ventricular volume change with age vs placebo (PSP patients [4]; women (older woman patients), 30 mg twice daily intranasally, 52 weeks, listed as NAP peptide): reduced the increase in the size of brain ventricles
gait deficits [5]: ameliorated
cognitive score in aMCI (Morimoto et al.) [6]: cognitive score enhancement
effect of treatment on aMCI symptoms ([7]; listed as NAP): significant improvement
effect of treatment on aMCI symptoms ([7]; listed as NAP peptide): statistically significant effect
DMTS change vs placebo, Student's t test ([7]; test week 8): significant difference
DMTS change vs placebo, Student's t test ([7]; week 4 and 16): trending
Hace1 gene/mRNA intron retention event (aberrant alternative splicing) (Hace1; ADNP mutated HTR males, brain hippocampal samples): corrected
Hace1 expression as a consequence of NAP treatment (Hace1; male vs female Adnp mutated mice, hippocampus): sex-specific opposite expression
